In patent publication US20250327028A1, “ENGINEERED PLATELETS AS TARGETED PROTEIN DEGRADERS” (Wisconsin Alumni Research Foundation, priority 2024, published 2025):

Assays:
HSP90 [1] = assay: Streptavidin-bead immunoprecipitation of biotin-labeled HSP90 in platelets treated with HAC-B; assay type: cell-based, BALB/c mice
Experimental: The immunoprecipitation assays based on the streptavidin-biotin system were used to evaluate the engineering efficiency of HAC-B on platelets. The fresh platelets were isolated from the whole blood of BALB/c mice as described above. PBS containing PGE1 ([…]) was adopted to dilute the platelets to a final concentration of 1×10^8 platelets/mL, and a total amount of 2×10^8 platelets (2 mL) was assigned for each sample in one tube. The HAC-B stock solution in DMSO was added to each tube at a final concentration of 2.5, 5, or 10 μM, and then the samples were placed in an orbital shaker with a speed of 50 rpm and incubated for 2 h at room temperature (blank DMSO serve as 0 μM). Meanwhile, other tubes containing the same platelet suspensions were added with HAC-B stock solution at a final concentration of 10 μM, which were shaken at the same conditions for 0.5, 1, 2, 3, or 4 h (the platelet suspension that was centrifugated immediately after HAC-B addition serves as the 0 h group). […] The total proteins in the supernatants were quantified through the BCA assay, and 10 μL of lysate supernatants were saved as the input samples. […]

HSP90 [2] = assay: Quantification of biotin-labeled contents in platelets (biotin quantitation kit); assay type: cell-based, BALB/c mice; details: 2 h
Experimental: The fresh platelets were incubated with HAC-B at 2.5, 5, 10, 20, and 40 μM for 2 h, and the corresponding lysates were collected using the IP lysis buffer containing PMSF and phosphatase inhibitor cocktail. The biotin-labeled contents in each lysate supernatant were quantified by the QuantTag™ biotin quantitation kit, and the relevant engineering efficiency was calculated based on dividing the amount of biotin-labeled contents by the HAC-B amount added.

## N#CCN(C(=O)CCCC[C@@H]1SC[C@@H]2NC(=O)N[C@@H]21)S(=O)(=O)c1ccc(C(=O)NCCCn2c(Sc3cc4c(cc3I)OCO4)nc3c(N)ncnc32)cc1 [HAC-B, N-(3-(6-amino-8-((6-iodobenzo[d][1,3]dioxol-5-yl)thio)-9H-purin-9-yl)propyl)-4-(N-(cyanomethyl)-N-(5-((3aS,4S,6aR)-2-oxohexahydro-1H-thieno[3,4-d]imidazol-4-yl)pentanoyl)sulfamoyl)benzamide]
HSP90 [1]; 2 h
  concentration dependence of HSP90 tethering in platelets: in a concentration-dependent manner
HSP90 [1]; HAC-B 10 μM
  incubation time at which biotin labeling of HSP90 in platelets approaches a maximum: ~2 h
HSP90 [2]
  HAC-B concentration at which biotin-labeled content inside platelets reaches a peak: 20 µM
